Data on 2 compounds can be found in patent US20260327255A1, “LIGAND-DIRECTED COVALENT MODIFICATION OF AMINO ACID SIDE CHAINS USING CYCLIC IMINE MANNICH ELECTROPHILES” (Purdue Research Foundation, priority 2022, published 2026).

What is called Kd is the constant that tells how readily two partners part at equilibrium. Usually IC50 stands for the point on the concentration scale where inhibition reaches its midpoint.

Changes are numbered by the printed parent chain. Where a SMILES comes first, the peptide text is derived from it. [ ]: non-standard residue; d: D form. The star is where a group is joined. Benzoyl(4-OPh) = O=C(c1ccc(Oc2ccccc2)cc1)*; Lys(Et2) = CCN(CC)CCCC[C@H](N)C(=O)O; Gly(cPent) = N[C@H](C(=O)O)C1CCCC1

The target in series [1] is T1, wild-type CBX8 chromodomain (Homo sapiens, UniProt Q9HC52).
T1 construct: recombinant CBX8 chromodomain (ChD)
T1 sequence (Q9HC52 11-69 limits assumed): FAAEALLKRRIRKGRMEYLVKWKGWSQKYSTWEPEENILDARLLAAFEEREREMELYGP
In words: Time-dependent fluorescence polarization displacement assay, CBX8. The class given is binding. The following applies: for time-dependent change of potency (IC50): further incubation; for IC50 without additional incubation time (in words): no additional incubation. The method, then: (A) The fraction of labeled protein as determined by UV integration on reverse phase HPLC. CBX8 ChD and P2 were incubated at 10 μM each for 16 hours at 37° C. UV absorption measured at 215 nm. (B) Mass spectra of CBX8 ChD treated overnight with inhibitor P2 (top, red) and control CBX8 ChD (bottom, green). […] (C) Time dependent fluorescence polarization displacement assays of indicated chromodomains with P2. Assays were conducted using SW2_123 as an FP probe (FIG. S15) at 100 nM. All proteins were used at 2 μM in PBS (pH 7), 0.02% Tween 20. Error bars represent s.d.
A fluorescence polarization (FP) displacement assay was used to evaluate the covalent binding of cyclic imine warhead containing inhibitors.
To validate labeling of the targeted tyrosine residue (Y39), this amino acid was mutated to phenylalanine, which is structurally similar but lacks reactivity to the cyclic imine.
In general terms: In fluorescence polarisation assays a small probe gives low polarisation when free and higher when bound to something large.

A further series has as its target T2, CBX8 ChD (Homo sapiens, UniProt Q9HC52).
T2 construct: recombinant CBX8 chromodomain (ChD)
T2 sequence (Q9HC52 11-69 limits assumed): T1 sequence (Q9HC52 11-69 limits assumed)
Conditions: cited from earlier work.

Another series concerns the target T3, endogenous CBX8 (Homo sapiens, UniProt Q9HC52).
T3 sequence (Q9HC52 1-389): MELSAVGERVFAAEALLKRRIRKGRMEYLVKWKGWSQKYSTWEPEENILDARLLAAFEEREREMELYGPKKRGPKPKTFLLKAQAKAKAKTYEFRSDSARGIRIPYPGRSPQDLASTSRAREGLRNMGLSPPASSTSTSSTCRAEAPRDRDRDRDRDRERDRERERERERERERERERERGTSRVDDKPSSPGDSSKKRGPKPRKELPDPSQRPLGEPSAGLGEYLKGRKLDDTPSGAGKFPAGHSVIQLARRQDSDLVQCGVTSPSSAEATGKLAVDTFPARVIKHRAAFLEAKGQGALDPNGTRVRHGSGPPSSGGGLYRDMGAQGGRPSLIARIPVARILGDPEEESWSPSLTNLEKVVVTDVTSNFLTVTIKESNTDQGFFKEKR
In words: In-gel fluorescence labeling in HEK293T cell lysates. Format: binding. Conditions: ~20 μM, 20 eq competitor with P2. The method, then:
After incubation of the inhibitor P2 at 1 μM in HEK293T cell lysates for 1 h at 37° C., click chemistry was conducted to conjugate TAMRA-azide to the C-terminal alkyne of P2 prior to SDS-PAGE.

The subject of series [2] is CBX8 binding to chromatin; CBX8-mediated gene expression. Conditions: MLL-AF9 transformed leukemia; cited from earlier work.
Series [3] deals with HOXA9 gene expression in THP1 cells. In words: qRT-PCR analysis of HOXA9 gene expression in THP1 cells. Format: cell-based. As to the method:
FIG. 14 Cellular activity of covalent, cyclic imine inhibitors to CBX8. qRT-PCR analysis of HOXA9 gene expression in THP1 cells after 48 h of compound treatment at the indicated dose. N=3. Error bars represent s.d. Statistical significance determined by Student's T test. *=p<0.05, **=p<0.01, ***=p<0.001, ****=p<0.0001.
FIG. 15 Cellular activity of covalent, cyclic imine inhibitors to CBX8. (A) qRT-PCR analysis of HOXA9 gene expression in THP1 cells after 48 h of compound treatment at the indicated dose. N=3. Error bars represent s.d. Statistical significance calculated using student's t-test. **=p<0.01, ****=p<0.0001. (B) qRT-PCR analysis of HOXA9 gene expression in THP1 cells treated with increasing doses of compound for 48 h. N=3. Error bars represent s.d.
Imine inhibitors were assessed for improved cellular activity using a disease-relevant cell model. […] Using this same model, we compared the covalent inhibitors with non-covalent inhibitor SW2_110A in THP1 cell lines. […] The two optimal inhibitors P1bP and P2 were subsequently tested for dose-dependency in this cellular assay. Dose curves indicate that these covalent inhibitors have 30 to 100-fold improvement of cellular activity compared to the non-covalent inhibitor (FIG. 15B).

The nature of series [4]: Stability of cyclic imine inhibitor P1b. The class given is physicochemical. As to the method: The sample was split, and one portion was further reduced with sodium cyanoborohydride. LC/MS: UV traces, low resolution mass spectrum. […] Stability was similarly assayed with 24-hour incubation in either 100 mM HCl or 100 mM NaOH.
A further series addresses T4, mutant CBX8 (Y39F) (Homo sapiens, UniProt Q9HC52, Y39F).
T4 construct: Time dependent fluorescence polarization displacement assays of indicated chromodomains with P2
T4 sequence (Q9HC52 11-69 Y39F limits assumed): T1 sequence (Q9HC52 11-69 limits assumed) with Y29F
Briefly: Time-dependent fluorescence polarization displacement assay, CBX8 Y39F. The class given is binding. As to the method:
(A) The fraction of labeled protein as determined by UV integration on reverse phase HPLC. CBX8 ChD and P2 were incubated at 10 μM each for 16 hours at 37° C. UV absorption measured at 215 nm. (B) Mass spectra of CBX8 ChD treated overnight with inhibitor P2 (top, red) and control CBX8 ChD (bottom, green). Observed masses are shown (expected average mass for CBX8 ChD=8792 Da). The observed mass difference (895 Da) corresponds to the expected mass change of 901 Da. (C) Time dependent fluorescence polarization displacement assays of indicated chromodomains with P2. Assays were conducted using SW2_123 as an FP probe (FIG. S15) at 100 nM. All proteins were used at 2 μM in PBS (pH 7), 0.02% Tween 20. Error bars represent s.d.
To validate labeling of the targeted tyrosine residue (Y39), this amino acid was mutated to phenylalanine, which is structurally similar but lacks reactivity to the cyclic imine. […] Similarly, for CBX2 ChD, no change in apparent affinity was observed over time in the FP assay (FIG. 13C), and no labeled protein was detected by MS.

`CC[C@H](C)[C@H](NC(=O)[C@@H](NC(=O)c1ccc(Oc2ccccc2)cc1)C1CCCC1)C(=O)N[C@@H](CCCCN(CC)CC)C(=O)N[C@@H](CO)C(N)=O` [SW2_110A] ({Benzoyl(4-OPh)}-[Gly(cPent)]I[Lys(Et2)]S-NH2): in series [1], the “time-dependent change of potency (IC50)” value is recorded as “did not” and the “IC50 without additional incubation time (in words)” value is listed as “comparable IC50 values”. On CBX8 ChD (CBX8 over CBX2), the “selectivity over CBX2” value is 6 fold. Also, the dissociation constant Kd at CBX8 ChD was 0.8 µM. Besides, the “selectivity for CBX8 over CBX4, CBX6, and CBX7” value at CBX8 ChD (in words) was “high selectivity”. The “effect on P2 protein labeling on co-incubation” value on endogenous CBX8 is reported as “protein labeling was reduced”. In addition, in series [2], the CBX8-mediated gene expression result is “reduces CBX8-mediated gene expression” and the “inhibition of CBX8 binding to chromatin” value is reported as “inhibits CBX8 binding to chromatin”.

As to `CC[C@H](C)[C@H](NC(=O)[C@@H](NC(=O)c1ccc(Oc2ccccc2)cc1)C1CCCC1)C(=O)N[C@@H](CCCCN(CC)CCCCCCN1CCN=CC1=O)C(=O)N[C@@H](CO)C(N)=O` [Compound P1b], in series [1], the “time-dependent change of potency (IC50)” value is “time-dependent increase of potency” and the “IC50 without additional incubation time (in words)” value was “comparable IC50 values”. In series [3] (10 μM P1b vs 100 μM SW2_110A), the “reduction of HOXA9 gene expression, 10 μM P1b vs 100 μM SW2_110A” value is on record as “reduced gene expression to a similar extent as 100 μM SW2_110A”. The “reduction of HOXA9 expression versus non-covalent inhibitor” value in series [3] (THP1, 48 h, vs SW2_110A) is “most effective at reducing HOXA9 gene expression”. Moreover, the degradation result in series [4] (100 mM HCl, 100 mM NaOH and neutral PBS, 96 h, room temperature) is given as “no significant degradation”. Further, the “conversion of imine to amine on NaBH3CN after 24-hour incubation in PBS” value in series [4] (24 h PBS, then sodium cyanoborohydride (10 eq.)) is listed as “full conversion of imine to amine”. The 50% inhibitory concentration (IC50) on mutant CBX8 (Y39F) is 7.3 µM.
